{"source": "ChEMBL document CHEMBL4138146", "about": "“A Schmidt rearrangement-mediated synthesis of novel tetrahydro-benzo[1,4]diazepin-5-ones as potential anticancer and antiprotozoal agents” (Eur J Med Chem, 2017)", "type_in_all_cases": "functional", "key": {"NCI-H23": {"system": "NCI-H23", "assay": "Growth inhibition of human NCI-H23 cells assessed as cell growth at 10^-4 M incubated for 48 hrs by sulforhodamine B assay relative to control", "settings": "NCI-H23, 48 h, read-out: Activity"}, "MDA-MB-435": {"system": "MDA-MB-435", "assay": "Growth inhibition of human MDA-MB-435 cells assessed as cell growth at 10^-6 M incubated for 48 hrs by sulforhodamine B assay relative to control", "settings": "MDA-MB-435, 48 h, read-out: Activity"}, "NCI-H322M": {"system": "NCI-H322M", "assay": "Growth inhibition of human NCI-H322M cells assessed as cell growth at 10^-7 M incubated for 48 hrs by sulforhodamine B assay relative to control", "settings": "read-out: Activity"}, "A549": {"system": "A549", "assay": "Growth inhibition of human A549/ATCC cells assessed as cell growth at 10^-8 M incubated for 48 hrs by sulforhodamine B assay relative to control", "settings": "A549, 48 h, read-out: Activity"}, "MCF7": {"system": "MCF7", "assay": "Growth inhibition of human MCF7 cells assessed as cell growth at 10^-8 M incubated for 48 hrs by sulforhodamine B assay relative to control", "settings": "MCF7, 48 h, read-out: Activity"}, "NCI-H226 [1]": {"system": "NCI-H226", "assay": "Growth inhibition of human NCI-H226 cells assessed as cell growth at 10^-6 M incubated for 48 hrs by sulforhodamine B assay relative to control", "settings": "NCI-H226, 48 h, read-out: Activity"}, "COLO 205 [2]": {"system": "COLO 205", "assay": "Growth inhibition of human COLO205 cells assessed as cell growth at 10^-4 M incubated for 48 hrs by sulforhodamine B assay relative to control", "settings": "COLO 205, 48 h, read-out: Activity"}, "COLO 205 [3]": {"system": "COLO 205", "assay": "Growth inhibition of human COLO205 cells assessed as cell growth at 10^-7 M incubated for 48 hrs by sulforhodamine B assay relative to control", "settings": "COLO 205, 48 h, read-out: Activity"}, "BT-549": {"system": "BT-549", "assay": "Growth inhibition of human BT549 cells assessed as cell growth at 10^-8 M incubated for 48 hrs by sulforhodamine B assay relative to control", "settings": "BT-549, 48 h, read-out: Activity"}, "NCI-H226 [4]": {"system": "NCI-H226", "assay": "Growth inhibition of human NCI-H226 cells assessed as cell growth at 10^-4 M incubated for 48 hrs by sulforhodamine B assay relative to control", "settings": "NCI-H226, 48 h, read-out: Activity"}, "HL-60(TB)": {"system": "HL-60(TB)", "assay": "Growth inhibition of human HL-60(TB) cells assessed as cell growth at 10^-8 M incubated for 48 hrs by sulforhodamine B assay relative to control", "settings": "HL-60, 48 h, read-out: Activity"}, "ACHN": {"system": "ACHN", "assay": "Growth inhibition of human ACHN cells assessed as cell growth at 10^-5 M incubated for 48 hrs by sulforhodamine B assay relative to control", "settings": "read-out: Activity"}, "SK-OV-3": {"system": "SK-OV-3", "assay": "Growth inhibition of human SKOV3 cells assessed as cell growth at 10^-8 M incubated for 48 hrs by sulforhodamine B assay relative to control", "settings": "SK-OV-3, 48 h, read-out: Activity"}, "SNB-75": {"system": "SNB-75", "assay": "Growth inhibition of human SNB75 cells assessed as cell growth at 10^-7 M incubated for 48 hrs by sulforhodamine B assay relative to control", "settings": "SNB-75, 48 h, read-out: Activity"}, "OVCAR-8": {"system": "OVCAR-8", "assay": "Growth inhibition of human OVCAR8 cells assessed as cell growth at 10^-5 M incubated for 48 hrs by sulforhodamine B assay relative to control", "settings": "OVCAR-8, 48 h, read-out: Activity"}, "SF-268 [5]": {"system": "SF-268", "assay": "Growth inhibition of human SF268 cells assessed as cell growth at 10^-8 M incubated for 48 hrs by sulforhodamine B assay relative to control", "settings": "SF-268, 48 h, read-out: Activity"}, "SK-MEL-28 [6]": {"system": "SK-MEL-28", "assay": "Growth inhibition of human SK-MEL-28 cells assessed as cell growth at 10^-7 M incubated for 48 hrs by sulforhodamine B assay relative to control", "settings": "SK-MEL-28, 48 h, read-out: Activity"}, "SK-MEL-2": {"system": "SK-MEL-2", "assay": "Growth inhibition of human SK-MEL-2 cells assessed as cell growth at 10^-7 M incubated for 48 hrs by sulforhodamine B assay relative to control", "settings": "SK-MEL-2, 48 h, read-out: Activity"}, "NCI/ADR-RES": {"system": "NCI/ADR-RES", "assay": "Growth inhibition of human NCI/ADR-RES cells assessed as cell growth at 10^-6 M incubated for 48 hrs by sulforhodamine B assay relative to control", "settings": "read-out: Activity"}, "SF-268 [7]": {"system": "SF-268", "assay": "Growth inhibition of human SF268 cells assessed as cell growth at 10^-4 M incubated for 48 hrs by sulforhodamine B assay relative to control", "settings": "SF-268, 48 h, read-out: Activity"}, "SK-MEL-28 [8]": {"system": "SK-MEL-28", "assay": "Growth inhibition of human SK-MEL-28 cells assessed as cell growth at 10^-4 M incubated for 48 hrs by sulforhodamine B assay relative to control", "settings": "SK-MEL-28, 48 h, read-out: Activity"}, "MDA-MB-468": {"system": "MDA-MB-468", "assay": "Growth inhibition of human MDA-MB-468 cells assessed as cell growth at 10^-6 M incubated for 48 hrs by sulforhodamine B assay relative to control", "settings": "MDA-MB-468, 48 h, read-out: Activity"}, "PC-3": {"system": "PC-3", "assay": "Growth inhibition of human PC3 cells assessed as cell growth at 10^-8 M incubated for 48 hrs by sulforhodamine B assay relative to control", "settings": "PC-3, 48 h, read-out: Activity"}, "K562": {"system": "K562", "assay": "Growth inhibition of human K562 cells assessed as cell growth at 10^-4 M incubated for 48 hrs by sulforhodamine B assay relative to control", "settings": "K562, 48 h, read-out: Activity"}, "NCI-H460": {"system": "NCI-H460", "assay": "Growth inhibition of human NCI-H460 cells assessed as cell growth at 10^-5 M incubated for 48 hrs by sulforhodamine B assay relative to control", "settings": "NCI-H460, 48 h, read-out: Activity"}, "SW-620": {"system": "SW-620", "assay": "Growth inhibition of human SW620 cells assessed as cell growth at 10^-6 M incubated for 48 hrs by sulforhodamine B assay relative to control", "settings": "SW-620, 48 h, read-out: Activity"}, "SR": {"system": "SR", "assay": "Growth inhibition of human SR cells assessed as cell growth at 10^-4 M incubated for 48 hrs by sulforhodamine B assay relative to control", "settings": "read-out: Activity"}, "OVCAR-3": {"system": "OVCAR-3", "assay": "Growth inhibition of human OVCAR3 cells assessed as cell growth at 10^-7 M incubated for 48 hrs by sulforhodamine B assay relative to control", "settings": "OVCAR-3, 48 h, read-out: Activity"}, "CCRF-CEM": {"system": "CCRF-CEM", "assay": "Growth inhibition of human CCRF-CEM cells assessed as cell growth at 10^-7 M incubated for 48 hrs by sulforhodamine B assay relative to control", "settings": "read-out: Activity"}, "EKVX": {"system": "EKVX", "assay": "Growth inhibition of human EKVX cells assessed as cell growth at 10^-8 M incubated for 48 hrs by sulforhodamine B assay relative to control", "settings": "read-out: Activity"}, "U-251": {"system": "U-251", "assay": "Growth inhibition of human U251 cells assessed as cell growth at 10^-8 M incubated for 48 hrs by sulforhodamine B assay relative to control", "settings": "U-251, 48 h, read-out: Activity"}, "HCT-15": {"system": "HCT-15", "assay": "Growth inhibition of human HCT15 cells assessed as cell growth at 10^-5 M incubated for 48 hrs by sulforhodamine B assay relative to control", "settings": "HCT-15, 48 h, read-out: Activity"}, "KM12": {"system": "KM12", "assay": "Growth inhibition of human KM12 cells assessed as cell growth at 10^-7 M incubated for 48 hrs by sulforhodamine B assay relative to control", "settings": "KM12, 48 h, read-out: Activity"}}}
{"smiles": "CCCCOc1nc2ccccc2cc1C1CNC(=O)c2ccccc2N1", "note": "(stereo not drawn)", "values": [{"measurement": "growth at 100 µM", "setting": "NCI-H23", "result": -26, "unit": "%"}, {"measurement": "growth at 1 µM", "setting": "MDA-MB-435", "result": 8, "unit": "%"}, {"measurement": "growth at 0.1 µM", "setting": "NCI-H322M", "result": 95, "unit": "%"}, {"measurement": "growth at 0.01 µM", "setting": "A549", "result": 100, "unit": "%"}, {"measurement": "growth at 0.01 µM", "setting": "MCF7", "result": 88, "unit": "%"}, {"measurement": "growth at 1 µM", "setting": "NCI-H226 [1]", "result": 92, "unit": "%"}, {"measurement": "growth at 100 µM", "setting": "COLO 205 [2]", "result": -62, "unit": "%"}, {"measurement": "growth at 0.1 µM", "setting": "COLO 205 [3]", "result": 95, "unit": "%"}, {"measurement": "growth at 0.01 µM", "setting": "BT-549", "result": 105, "unit": "%"}, {"measurement": "growth at 100 µM", "setting": "NCI-H226 [4]", "result": -32, "unit": "%"}, {"measurement": "growth at 0.01 µM", "setting": "HL-60(TB)", "result": 98, "unit": "%"}, {"measurement": "growth at 10 µM", "setting": "ACHN", "result": 22, "unit": "%"}, {"measurement": "growth at 0.01 µM", "setting": "SK-OV-3", "result": 88, "unit": "%"}, {"measurement": "growth at 0.1 µM", "setting": "SNB-75", "result": 89, "unit": "%"}, {"measurement": "growth at 10 µM", "setting": "OVCAR-8", "result": 12, "unit": "%"}, {"measurement": "growth at 0.01 µM", "setting": "SF-268 [5]", "result": 95, "unit": "%"}, {"measurement": "growth at 0.1 µM", "setting": "SK-MEL-28 [6]", "result": 98, "unit": "%"}, {"measurement": "growth at 0.1 µM", "setting": "SK-MEL-2", "result": 99, "unit": "%"}, {"measurement": "growth at 1 µM", "setting": "NCI/ADR-RES", "result": 70, "unit": "%"}, {"measurement": "growth at 100 µM", "setting": "SF-268 [7]", "result": 1, "unit": "%"}, {"measurement": "growth at 100 µM", "setting": "SK-MEL-28 [8]", "result": -57, "unit": "%"}, {"measurement": "growth at 1 µM", "setting": "MDA-MB-468", "result": 66, "unit": "%"}, {"measurement": "growth at 0.01 µM", "setting": "PC-3", "result": 96, "unit": "%"}, {"measurement": "growth at 100 µM", "setting": "K562", "result": -25, "unit": "%"}, {"measurement": "growth at 10 µM", "setting": "NCI-H460", "result": 5, "unit": "%"}, {"measurement": "growth at 1 µM", "setting": "SW-620", "result": 66, "unit": "%"}, {"measurement": "growth at 100 µM", "setting": "SR", "result": -25, "unit": "%"}, {"measurement": "growth at 0.1 µM", "setting": "OVCAR-3", "result": 98, "unit": "%"}, {"measurement": "growth at 0.1 µM", "setting": "CCRF-CEM", "result": 100, "unit": "%"}, {"measurement": "growth at 0.01 µM", "setting": "EKVX", "result": 90, "unit": "%"}, {"measurement": "growth at 0.01 µM", "setting": "U-251", "result": 99, "unit": "%"}, {"measurement": "growth at 10 µM", "setting": "HCT-15", "result": 3, "unit": "%"}, {"measurement": "growth at 0.1 µM", "setting": "KM12", "result": 98, "unit": "%"}]}
